Assay results reported in patent US20230332103A1, “Methods and Compositions for Generating Human Forebrain Neural Progenitor Cells and for Maturation Thereof to Parvalbumin+ Interneurons” (Trailhead Biosystems Inc., priority 2021, published 2023).
“Also recorded” adds a separate entry of the source.

Key:
Assay type in all cases: cell-based, human
MGE progenitor cells = assay: HD-DoE 12-factor experiment for stage 4 recipe, optimized for MEF2C
Excerpt: These effectors are small molecules or proteins. They are commonly used during stepwise differentiation of stem cells to specific fates. The choice of the effectors was based on current literature on neural induction in forebrain region of developing brain and differentiation of stem cells to neural progenitors.
To evaluate the effectors, experiments with at least 8 factors were designed that can assess the response of cells to 48 or more different combinations of effectors in a range of concentrations. To analyze the models, we focused on expression of genes involved in development and patterning of the forebrain interneurons maturation including LHX6 (Yuan et al. (2018) Elife, 7:e37382), DLX5 (Wang et al. (2010) J. Neuroscience 30:5334-5345), ASCL1 (Shi et al. (2016) J. Biol. Chem. 291:13560-13570). At later stages we focused on interneuron maturation genes including Parvalbumin and absence of somatostatin (Horn and Nicoll (2018) Proc. Natl. Acad. Sci. 115:589-594). The impacts of each effector on gene expression level are defined by a parameter called factor contribution that is calculated for each effector during the modeling.
To identify the recipe of stage 4 of differentiation, 48 different combinations of effectors generated using Design-of-Experiments compression through D-optimality were robotically prepared. The effector combinations were prepared in a basal media and were subsequently added to the cells, which were then allowed to differentiate. Three days later RNA extraction was performed, and gene expression was obtained using quantitative PCR analysis. The data was normalized and modeled using partial least squares regression analysis to the effector design, resulting in the generation of gene-specific models, which after model tuning for maximal predictive power, provided explanation of the effectors ability to control the expression of individual genes, combinatorically, and individually. Solutions within the tested space could then be explored to address desirability. […] Valproic Acid can inhibit histone deaceylases and increase γ-aminobutyric acid (GABA). […] GDNF is the […] Glial cell line-derived neurotrophic factor and can activate the GDNF pathway.
To find the set of factors that have the potential to optimize MEF2C in this experiment, a new assessment was done through dynamic profile analysis with focus on maximal expression of MEF2C (FIG. 20).

[1] = system: forebrain-committed neural stem cells (stage 1 neural stem cells); assay: HD-DoE 12-factor experiment for stage 2 recipe, optimized for NKX2-1; settings: model maximized for NKX2-1 / dynamic profile, FIG. 7 and 8
Method in brief: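 Forebrain-committed neural stem cells treated for 3 days after stage 1 with combinations of 12 factors (LDN193189, BMP7, PD0325901, MK2206, A8301, XAV939, CHIR99021, purmorphamine, SANT-1, AGN193109, TTNPB, GSI-XX). Response scored as maximal NKX2-1 and minimal PAX6 expression.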

[2] = system: stage 2 neural stem cells (cells treated with stage 1 and stage 2 media); assay: HD-DoE experiment for stage 3 recipe, optimized for ASCL1
Procedure: To further guide the cells to medial ganglionic eminence progenitor fate, an additional HD-DoE experiment was performed for 3 days on cells that were treated with stage 1 and stage 2 media for total of 6 days prior to start of the experiment. This experiment included 13 effectors, LDN193189, A8301, GNF5837, AZD3147, GSI-XX, Takinib, PD0325901, PD173074, BLU9931, IGF-1, MHY1485, Purmorphamine and Prostratin. In this model, we focused on maximum expression of genes expressed in neuronal progenitor cells in medial ganglionic eminence (MGE) region including ASCL1, LHX6 and DLX1 (Silberberg et al. (2016) Neuron 92:59-74). When the model was optimized for maximum expression of ASCL1 at 1700, A8301, GSI-XX, Purmorphamine and Takinib, which is an inhibitor of TAK1 pathway, had the highest factor contributions, 18.1, 14.1, 12.7 and 10.1 respectively. […]

[3] = system: stage 2 neural stem cells; assay: factor criticality analysis (dynamic profile analysis) of stage 3 recipe; set-up: unit not given here; settings: other five factors present
Procedure: To assess the impact of the elimination of each validated factor, dynamic profile analysis was used and compared the expression level of genes of interest in absence of each finalized factor while others are present. […] In the stage 3 recipe, each of the six finalized factors were removed while the other five factors remained present and the expression levels of ASCL1, DLX1 and LHX6 were assessed compared to the presence of all six factors. […] As expected, in the absence of IGF-1, the value of DLX1 increases to 410, however, ASCL1 and LHX6 decreased to 1390 and 220, respectively.

[4] = dynamic profile analysis, FIG. 10

Row | Compound | impact on expression of MEF2C (MGE progenitor cells; dynamic profile analysis, FIG. 20) | factor contribution on expression of MEF2C (MGE progenitor cells; significant negative effect, model optimized for maximal expression of MEF2C) | impact on expression of NKX2-1 [1] | impact on expression of ASCL1 [2, 4] | impact on expression of DLX1 [2, 4] | impact on expression of LHX6 [2, 4] | factor contribution on expression of ASCL1 ([2]; positive, model optimized for maximum expression of ASCL1 at 1700, FIG. 9) | expression level of DLX1 when the effector is removed ([3]; 220 with all six factors) | expression level of LHX6 when the effector is removed ([3]; 240 with all six factors) | expression level of ASCL1 when the effector is removed ([3]; 1650 with all six factors)
1 | c1ccc2c(-c3cnn4cc(-c5ccc(N6CCNCC6)cc5)cnc34)ccnc2c1 [LDN193189] | negative effect | 11 | increase its expression level | – | – | – | – | – | – | –
2 | c1ccc2c(Oc3nc(Nc4ccc(N5CCOCC5)cc4)c4ncn(C5CCCCC5)c4n3)cccc2c1 [Purmorphamine] | – | – | increase its expression level | positive trends; also recorded: Positive impact | did not have a significant negative impact | positive trends; also recorded: Positive impact | 12.7 | stayed the same | 190 | 1200
